Source: publication PMC9276586 (Cellular and Molecular Life Sciences: CMLS, 2022)
In brackets after ≈: the same amount, converted by molar mass. Where two headings read alike, the source gives them in different places. Peptide text beside a SMILES is read from it.

Experiments:
[1] = test system: MDR K. pneumoniae (CCUG 58547); format: cell-based, Klebsiella pneumoniae; conditions: 10 mM Tris buffer, bacteria 1 × 10^6 CFU/mL, 1 h 37 °C, then TSB 16–18 h, read at 595 nm
Method: The following uropathogenic bacterial species were used for the in vitro experiments, E. coli CFT073; E. coli ESBL-producing (CCUG 55197); K. pneumoniae (ATCC 25955); K. pneumoniae multidrug resistant (MDR) (CCUG 58547); and P. aeruginosa (ATCC 27853). Clinical isolates were obtained from the Department of Clinical Microbiology, Karolinska University Hospital, Solna, Sweden. Bacteria were cultured aerobically overnight on blood agar plates at 37 °C. For each bacterial species, 20 clinical isolates were included. For further assessment of biofilm formation, the E. coli isolate #12 from a child with pyelonephritis was chosen. The isolate expresses both curli and cellulose, as well as type 1 fimbriae and produces biofilm as measured on microtiter plates One-step knockout of bcsA and csgBA were carried out using the methods as described previously. […]
MIC of CD4-PP was evaluated against the type strains and the 20 clinical bacterial isolates using a two-step micro-dilution assay adapted for testing AMPs. […]
Bacteria were grown to mid-log phase before diluting to a final concentration of 1 × 10^6 CFU/mL in 10 mM Tris buffer using a Densichek Plus (BioMérieux). […] The MIC was read spectrophotometrically at 595 nm. […] The effects of salt ions on the antibacterial activities of CD4-PP were assessed against E. coli (ATCC 25922) and P. aeruginosa (ATCC 27853) type strains. […]

[2] = target: aureolysin (Staphylococcus aureus, UniProt P81177); test: Proteolytic stability against aureolysin; format: in vitro ADME; conditions: bacterial protease aureolysin; percentage of intact peptide at time points by LC–MS
aureolysin (Staphylococcus aureus, UniProt P81177), sequence (P81177 209-509): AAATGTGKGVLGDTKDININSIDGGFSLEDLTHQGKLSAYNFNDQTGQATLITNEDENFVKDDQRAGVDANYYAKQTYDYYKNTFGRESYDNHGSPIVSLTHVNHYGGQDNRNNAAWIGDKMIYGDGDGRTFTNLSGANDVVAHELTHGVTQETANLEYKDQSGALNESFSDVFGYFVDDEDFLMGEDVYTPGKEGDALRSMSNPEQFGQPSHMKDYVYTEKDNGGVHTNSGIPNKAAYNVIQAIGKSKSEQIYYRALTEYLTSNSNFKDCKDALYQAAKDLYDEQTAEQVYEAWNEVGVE
Method: A major limitation of AMPs as potential drug candidates is due to their inherent proteolytic instability, and endogenous AMPs are readily degraded by both host- and pathogen-proteases. […] Therefore, the stability of CD4-PP was tested against this enzyme. The percentage of the intact peptide at different time points was monitored using LC–MS, and compared to LL-37 as a control. […] In contrast, CD4-PP is stable for up to 6 h (Supplementary Fig. S2).
[picture] Supplementary Figure S2.

[3] = test system: Klebsiella pneumoniae (ATCC 25955); format: cell-based; conditions: 10 mM Tris buffer, bacteria 1 × 10^6 CFU/mL, 1 h 37 °C, then TSB 16–18 h, read at 595 nm
Method: (§1) The following uropathogenic bacterial species were used for the in vitro experiments, E. coli CFT073; E. coli ESBL-producing (CCUG 55197); K. pneumoniae (ATCC 25955); K. pneumoniae multidrug resistant (MDR) (CCUG 58547); and P. aeruginosa (ATCC 27853). Clinical isolates were obtained from the Department of Clinical Microbiology, Karolinska University Hospital, Solna, Sweden. Bacteria were cultured aerobically overnight on blood agar plates at 37 °C. For each bacterial species, 20 clinical isolates were included. For further assessment of biofilm formation, the E. coli isolate #12 from a child with pyelonephritis was chosen. The isolate expresses both curli and cellulose, as well as type 1 fimbriae and produces biofilm as measured on microtiter plates One-step knockout of bcsA and csgBA were carried out using the methods as described previously. The following mutants were used: WE1 bcsA::Cm (deficient in cellulose production), WE11 csgBA::Cm (deficient in curli production), and WE16 csgBA bscA::Cm (deficient in both cellulose and curli production). E. coli CFT073 was used for all experiments where nothing else is stated.
(§2) MIC of CD4-PP was evaluated against the type strains and the 20 clinical bacterial isolates using a two-step micro-dilution assay adapted for testing AMPs. The concentrations of CD4-PP were prepared double strength with two-fold serial dilutions ranging from 50 to 0.78 µM in 50 µL of 10 mM Tris buffer in a U-bottom 96-well plate (Corning Incorporated).
(§3) Bacteria were grown to mid-log phase before diluting to a final concentration of 1 × 10^6 CFU/mL in 10 mM Tris buffer using a Densichek Plus (BioMérieux). To each well, 50 µL suspension was added and incubated at 37 °C for 1 h and the final concentrations of peptide tested were from 25 to 0.39 µM. […] The MIC was read spectrophotometrically at 595 nm. MIC was defined as the lowest concentration of CD4-PP which inhibits bacterial growth. The effects of salt ions on the antibacterial activities of CD4-PP were assessed against E. coli (ATCC 25922) and P. aeruginosa (ATCC 27853) type strains. The following salts were used: sodium chloride (NaCl), ammonium chloride (NH4Cl), calcium chloride (CaCl2), magnesium chloride (MgCl2) and ferric chloride (FeCl3). All salts were purchased from Merck.

[4] = test system: E. coli ESBL strain (CCUG 55971); format: cell-based, Escherichia coli; conditions: 10 mM Tris buffer, bacteria 1 × 10^6 CFU/mL, 1 h 37 °C, then TSB 16–18 h, read at 595 nm
Method: as §1, §2
as §3, with “The following salts were used: sodium chloride (NaCl), ammonium chloride (NH4Cl), calcium chloride (CaCl2), magnesium chloride (MgCl2) and ferric chloride (FeCl3). All salts were purchased from Merck.” left out

[5] = test system: E. coli CFT073; format: cell-based, Escherichia coli
Method: as §1, §2
as §3, with “The following salts were used: sodium chloride (NaCl), ammonium chloride (NH4Cl), calcium chloride (CaCl2), magnesium chloride (MgCl2) and ferric chloride (FeCl3). All salts were purchased from Merck.” left out

[6] = test system: Pseudomonas aeruginosa (ATCC 27853); format: cell-based
Method: as §1, §2, §3

[7] = test system: aureolysin; test: bacterial protease aureolysin; conditions: up to 6 h
[8] = stated in SEM method, bacteria at 10^8 CFU/mL in 10 mM Tris buffer

For `CC[C@H](C)[C@@H]1NC(=O)[C@H](CCCNC(=N)N)NC(=O)[C@H](CCCCN)NC(=O)[C@H](C(C)C)NC(=O)[C@H]([C@@H](C)CC)NC(=O)[C@H](CCCNC(=N)N)NC(=O)[C@H](CCCCN)NC(=O)CNC(=O)CNC(=O)[C@@H]2CCCN2C(=O)[C@H](CS)NC(=O)[C@H](CCCNC(=N)N)NC(=O)[C@H](CC(C)C)NC(=O)[C@H](Cc2ccccc2)NC(=O)[C@H](C)NC(=O)[C@H](CCCCN)NC(=O)[C@H]([C@@H](C)CC)NC(=O)[C@H](CCCNC(=N)N)NC(=O)[C@H](CCCCN)NC(=O)[C@H](C(C)C)NC(=O)[C@H]([C@@H](C)CC)NC(=O)[C@H](CCCNC(=N)N)NC(=O)[C@H](CCCCN)NC(=O)CNC(=O)CNC(=O)[C@@H]2CCCN2C(=O)CNC(=O)[C@H](CCCNC(=N)N)NC(=O)[C@H](CC(C)C)NC(=O)[C@H](Cc2ccccc2)NC(=O)[C@H](C)NC(=O)[C@H](CCCCN)NC1=O` [CD4-PP] (cyclo(AFLRCPGGKRIVKRIKAFLRGPGGKRIVKRIK)), the MIC [1] was 1.56 µM (≈ 5.62 µg/mL), the “time for which the peptide is stable with aureolysin” value [2] was “up to 6 h” and the MIC [3] was 1.56 µM (≈ 5.62 µg/mL). It also gave an MIC [4] of 0.78 µM (≈ 2.81 µg/mL) and an MIC ([5]; CFT073, 1 h) of 0.78 µM (≈ 2.81 µg/mL).
For `CC[C@H](C)[C@H](NC(=O)[C@H](CCCCN)NC(=O)[C@H](CCC(=O)O)NC(=O)[C@H](CCCCN)NC(=O)[C@H](CO)NC(=O)[C@H](CCCCN)NC(=O)[C@H](CCCNC(=N)N)NC(=O)[C@H](Cc1ccccc1)NC(=O)[C@H](Cc1ccccc1)NC(=O)[C@H](CC(=O)O)NC(=O)CNC(=O)[C@H](CC(C)C)NC(=O)[C@@H](N)CC(C)C)C(=O)NCC(=O)N[C@@H](CCCCN)C(=O)N[C@@H](CCC(=O)O)C(=O)N[C@@H](Cc1ccccc1)C(=O)N[C@@H](CCCCN)C(=O)N[C@@H](CCCNC(=N)N)C(=O)N[C@H](C(=O)N[C@H](C(=O)N[C@@H](CCC(N)=O)C(=O)N[C@@H](CCCNC(=N)N)C(=O)N[C@H](C(=O)N[C@@H](CCCCN)C(=O)N[C@@H](CC(=O)O)C(=O)N[C@@H](Cc1ccccc1)C(=O)N[C@@H](CC(C)C)C(=O)N[C@@H](CCCNC(=N)N)C(=O)N[C@@H](CC(N)=O)C(=O)N[C@@H](CC(C)C)C(=O)N[C@H](C(=O)N1CCC[C@H]1C(=O)N[C@@H](CCCNC(=N)N)C(=O)N[C@H](C(=O)N[C@@H](CCC(=O)O)C(=O)N[C@@H](CO)C(=O)O)[C@@H](C)O)C(C)C)[C@@H](C)CC)C(C)C)[C@@H](C)CC` [LL-37], the “degradation by aureolysin (in words)” value [2] was “rapidly degraded within minutes”, the MIC ([6]; CaCl2 2.5 mM) was >10 µM and the MIC ([6]; FeCl3 4 µM) was 2.5 µM (≈ 11.2 µg/mL). The MIC ([6]; MgCl2 1 mM) was 5 µM (≈ 22.5 µg/mL), the MIC ([6]; NH4Cl 6 µM) was 1.25 µM (≈ 5.62 µg/mL) and the MIC ([6]; NaCl 150mM) was 5 µM (≈ 22.5 µg/mL). The MIC ([6]; salt series: Tris-buffer 10mM, no added salt) was 1.25 µM, the “MIC (reference concentration used for SEM)” value [6, 8] was 15.62 µM and the “MIC (reference concentration used for SEM)” value [5, 8] was 15.62 µM.
CPGGKRIVKRIKAFLRGPGGKRIVKRIKAFLR was tested, and the not cleaved [7] was “stable for up to 6 h”.
In the case of LLGDFFRKSKEKIGKEFKRIVQRIKDFLRNLVPRTES, the cleaved bond [7] is reported as “L31-V32”.
